Columns and labels:
[1] = tested on: p21 (CDC42/RAC)-activated kinase 1 (PAK1); parameters: method as in PMID 32597268; conditions: cited from earlier work
[2] = tested on: primary mice cardiomyocytes; conditions: in vitro; cited from earlier work
[3] = tested on: NeuN-, S100β- and IBA-1-immunopositive cells; experiment: Immunohistochemistry with stereological count of cortical and hippocampal cells; type: in vivo, rat; conditions: chronic 0.3 mg/kg × 7 sc, 72 h, vs control
Procedure: (§1) Animals received single or multiple (once per day for seven days) subcutaneous injections of 25I-NBOMe dissolved in 0.9% NaCl at a dose of 0.3 mg/kg/2 ml. The control group was treated with 0.9% NaCl solution in the same way. All procedures were performed 72 h after the last injection. The time point of 72 h was chosen due to the possible generation of neurotoxicity via oxidative stress caused by reactive oxygen species (ROS). Exceptionally, for initial 25I-NBOMe brain distribution studies, rats received the drug in the dose of 1 and 10 mg/kg and were sacrificed 15 min after the drug administration. The rat blood plasma and brain tissues were collected immediately after rats’ decapitation. LSD (0.05 mg/kg, ip) was given daily for 7 days in a volume of 1 ml/kg, while MDMA 5 mg/kg, ip was injected in a volume of 2 ml/kg every second day (overall 4 injections).
Animals were deeply anesthetized and transcardially perfused with 0.9% NaCl followed by 4% paraformaldehyde (PFA) in 0.1 M phosphate-buffered saline (PBS). After 24 h of fixation in 4% PFA (4 °C), 300 µm sections were cut through the frontal cortex (FC) and medial prefrontal cortex (mPFC) as well as hippocampus using a VT-1000S vibratome (Leica Microsystems, Heidelberg, Germany). Free-floating sections were processed for single staining of neurons with neuronal-specific nuclear protein (NeuN), glia with specific calcium-binding protein B (S100β), and microglia cells with ionized calcium-binding adaptor molecule 1 (IBA-1) antibodies. Subsequently, brain sections were rinsed and incubated for 1 h in a blocking buffer: 0.01 M PBS containing 0.3% Triton X-100 and 5% average horse, goat, or rabbit serum. After that, the sections were incubated for 48 h at 4 °C with one of the following primary antibodies: monoclonal anti-NeuN (1:1000), monoclonal anti-S100β-subunit (1:1000) or polyclonal IBA-1 (1:500) diluted in 0.01 M PBS containing 0.3% Triton X-100 (PBST) and 3% average horse or goat serum. Primary antibody binding was visualized with biotinylated secondary antibodies, the Avidin/Biotin Complex (Vectastain Elite ABC Kit) according to recommended by manufacturer concentration and 3,3′-diaminobenzidine tetrahydrochloride (DAB, 10 mg/50 ml and 0.025% H2O2) solution to give a brown color to NeuN, S100β and IBA-1-immunoreactive cells. For data presentation, digital images were captured using a digital camera CX 9000 (Bioscience Microbrightfield, Inc., Germany) attached to a Leica microscope (CTR 6000) with 2.5 and 5.0 dry or 63 × and 100 × oil objectives (Leica) that was controlled by Stereo Investigator software (v.8.10.2, 1995–2007 Bioscience Microbrightfield, Inc., Germany). The final photomicrographs were composed using the Adobe Photoshop program. The numbers of NeuN-, S100β- and IBA-1-immunopositive cells in the analyzed brain regions were estimated using unbiased stereological methods[35],[36]. Briefly, every sixth section from the systematic random sampling along the rostrocaudal axis was analyzed with a 63 ×/1.4–0.7 lens using the Stereo Investigator stereology system software. The cells appearing in the upper focal plane were omitted to prevent the counting of cell caps (− 5 μm of the topmost surface of the section). Immunopositive cells were marked when they were within the optical dissectors, which comprised a focal plane of 1600 μm^2 × 15 μm. The total numbers of NeuN, S100β- and IBA-1-immunopositive cells in the FC, mPFC, and hippocampus were automatically calculated by the Stereo Investigator software. In addition, the volume of the cortical regions and hippocampus was calculated using the Cavalieri Estimator option of the Stereo Investigator software.

H9c2 cells = conditions: in vitro; cited from earlier work
[4] = tested on: BrdU+ cells and BrdU/NeuN+ neurons in the hippocampus; conditions: doses 0.1, 0.3, and 1 mg/kg; vs control rats; cited from earlier work
DNA = experiment: Alkaline comet assay on nuclei from frontal cortex and hippocampus; type: in vivo, rat; conditions: for DNA damage (tail moment): single and repeated (× 7) 0.3 mg/kg sc, 72 h after administration, vs control
Procedure: as §1
The alkaline comet assay was performed with the use of CometAssay® Reagent Kit for Single Cell Gel Electrophoresis Assay. At 72 h after the acute and chronic treatment with 25I-NBOMe (0.3 mg/kg, sc × 7 days), LSD (0.05 mg/kg, ip × 7 days) or MDMA (5 mg/kg, ip × 4 doses every second day) animals were sacrificed by decapitation and the frontal cortex (that consist of the sum of FC and mPFC) and hippocampus were dissected. After homogenization and several purification and centrifugation stages (as described previously in[17]), the nuclear suspension was obtained using a sucrose gradient (2.8 M/2.6 M, bottom to top). The nuclear fraction was mixed with low melting point agarose and transferred immediately onto CometSlides™. The following steps, including membrane lysis, DNA unwinding, alkaline electrophoresis, and staining (SYBR® Gold), were carried out according to Trevigen CometAssay® protocol. Stained sections were acquired and analyzed under a fluorescence microscope (Nikon Eclipse50i, Japan) equipped with a camera and NIS Elements software. The data was analyzed using OpenComet software v.1.3 (cometbio.org), a plugin of ImageJ program v.1.47 (NIH, Bethesda, MD, USA). DNA damage was presented as a tail moment. Tail moment incorporates a measure of both the smallest detectable size of migrating DNA (reflected by the comet tail length) and the number of damaged pieces (represented by the intensity of DNA in the tail).

[5] = medial prefrontal cortex (mPFC)

Which “In vitro activity of PAK1” value [1] does the source give for `COc1cc(CCNCc2ccccc2OC)c(OC)cc1I` [25I-NBOMe, 4-Iodo-2,5-dimethoxy-N-(2-methoxybenzyl)phenethylamine] here?
Its value is “reduced”.

And the Cell viability [2]?
The Cell viability was “decreased the viability”.

And the “Number of IBA-1-immunopositive cells (microglia)” value ([3]; frontal cortex (FC))?
Its value is “significantly decreased”.

What about the “Number of NeuN cells (neurons)” value ([3]; frontal cortex (FC)) of the same compound?
Its value is “did not notice any significant change”.

And the “Number of S100β-immunopositive cells (astrocytes)” value ([3]; frontal cortex (FC))?
The value was “significantly decreased”.

What about the “Number of neuronal and glial cells” value ([3]; hippocampal regions CA1, CA3/CA2 and dentate gyrus) of the same compound?
The value was “did not show any changes”.

And the “Number of NeuN cells (neurons)” value [3, 5]?
Its value is “did not notice any significant change”.

What about the “Number of S100β-immunopositive cells (astrocytes)” value [3, 5] of the same compound?
Its value is “significant decrease”.

And the Cell viability (H9c2 cells)?
Its Cell viability is “decreased the viability”.

And the “Number of surviving BrdU+ cells and BrdU/NeuN+ neurons in the hippocampus” value [4]?
Its value is “significantly decreased”.

What about the “DNA damage (tail moment)” value (DNA; frontal cortex) of the same compound?
Its value is “produced DNA damage”.

What about the “DNA damage after multiple injections compared with a single dose” value (DNA; hippocampus, 0.3 mg/kg sc × 7 vs single, 72 h) of the same compound?
The value was “stronger than after a single dose”.

What about the “DNA damage (tail moment)” value (DNA; hippocampus) of the same compound?
The value was “produced DNA damage”.
